Where two headings read alike, the source gives them in different places. *1 amine or outer side, *2 acyl side, *3 side chain or, on linkers, in order; H or OH if unused. Where a SMILES comes first, the peptide text is derived from it. Bridges are numbered along the chain shown (N, C = ends). Primed or numbered codes have the meaning given here. [ ]: non-standard residue; d: D form. The star is where a group is joined. T1 = linker NH2CH2CH2N(SO2Me)CH2COOH, CS(=O)(=O)N(CCN[*:1])CC(=O)[*:2]; T1″ = NH2CH2CH2N(SO2Me)CH2COOH, CS(=O)(=O)N(CCN[*:1])CC(=O)[*:2]; dProlinol(O-CH2CO) = O=C(COC[C@H]1CCCN1[*:1])[*:2]; N(2-Aminoethyl)Gly = O=C(CN(CCN[*:3])[*:1])[*:2]; T3 = linker N(CH2)3CHCH2OCH2COOH; Nle = CCCC[C@H](N)C(=O)O; Ms = CS(=O)(=O)*
Tested on: H929 myeloma cells
Type: cell-based, human
Details: for bioactivity relative to parent/comparator peptide: SAR statements; for fold more potent than linear HYD1: reference of the 10- and 15-fold statements not expressly named
Description: H929 cells were treated for 24 hours with varying concentrations of peptide. Cell death was measured by Topro-3 staining and FACS analysis. The IC50 values were obtained from linear regression analysis and an average value was obtained from 3 independent experiments.
Table 4 legend: Structure activity relationship in H929 myeloma cells of cyclic INTEGRIN INTERACTION INHIBITORS derivatives. The minimal bioactive core sequence of INTEGRIN INTERACTION INHIBITORS WSVVM (SEQ ID NO:33) was cyclized using 2 novel reduced amide bond beta turn promoters and KLKLK (SEQ ID NO:34) as the non-recognition sequence. H929 cells were treated with varying concentrations of the indicated peptide for 24 h. Cell viability was determined using Topro-3 staining and FACS analysis after drug treatment. IC50 values were generated from linear regressions generated from the dose response curves (n=mean of 3 independent experiments).
A colony forming assay was used to compare induced cell death in H929 multiple myeloma cells. Cells were treated with integrin interaction inhibitors, shown in FIG. 5 and Table 4, and cell death was measured following 24 hour peptide treatment by TOPRO-3 staining and FACS analysis.

[1] = Table 8, cyclic III peptide analogs, H929 cells, read-out: IC50
[2] = H929 myeloma cells, 24 h treatment, Topro-3 staining and FACS, mean of at least 3 independent experiments, read-out: IC50

IC50 [1] | IC50 [2] | Compound | bioactivity relative to parent/comparator peptide (H929 cells) | other results
– | – | CSCC[C@@H]1NC(=O)CN(S(C)(=O)=O)CCNC(=O)[C@H](CCCCN)NC(=O)[C@H](CC(C)C)NC(=O)[C@H](CCCCN)NC(=O)[C@H](CC(C)C)NC(=O)[C@H](CCCCN)NC(=O)CN(S(C)(=O)=O)CCNC(=O)[C@H](Cc2c[nH]c3ccccc23)NC(=O)[C@H](CO)NC(=O)[C@H](C)NC(=O)[C@H](C(C)C)NC1=O [Peptide 5, KLKLKT1MVASWT1] | decrease in activity | –
– | – | CCCC[C@@H]1NC(=O)CN(S(C)(=O)=O)CCNC(=O)[C@H](CCCCN)NC(=O)[C@H](CC(C)C)NC(=O)[C@H](CCCCN)NC(=O)[C@H](CC(C)C)NC(=O)[C@H](CCCCN)NC(=O)CN(S(C)(=O)=O)CCNC(=O)[C@H](Cc2c[nH]c3ccccc23)NC(=O)[C@H](CO)NC(=O)[C@H](C(C)C)NC(=O)[C@H](C(C)C)NC1=O [Peptide 8, KLKLKT1N*VVSWT1] | resulted in a further increase of the peptide's bioactivity | fold more potent than linear HYD1 (H929 cells): 15 fold
– | – | CSCC[C@@H]1NC(=O)CN(S(C)(=O)=O)CCNC(=O)[C@H](CCCCN)NC(=O)[C@H](CC(C)C)NC(=O)[C@H](CCCCN)NC(=O)[C@H](CC(C)C)NC(=O)[C@H](CCCCN)NC(=O)CN(S(C)(=O)=O)CCNC(=O)[C@H](Cc2c[nH]c3ccccc23)NC(=O)[C@H](C)NC(=O)[C@H](C(C)C)NC(=O)[C@H](C(C)C)NC1=O [Peptide 4, KLKLKT1MVVAWT1] | significantly improved the bioactivity | fold more potent than linear HYD1 (H929 cells): approximately 10 fold; bioactivity relative to parent/comparator peptide (H929 cells, listed as L-cINTEGRIN INTERACTION INHIBITORSa7): increase in activity
– | – | CCCC[C@@H]1NC(=O)CN(S(C)(=O)=O)CCNC(=O)[C@H](CCCCN)NC(=O)[C@H](CC(C)C)NC(=O)[C@H](CCCCN)NC(=O)[C@H](CC(C)C)NC(=O)[C@H](CCCCN)NC(=O)CN(S(C)(=O)=O)CCNC(=O)[C@H](Cc2c[nH]c3ccccc23)NC(=O)[C@H](Cc2ccc(O)cc2)NC(=O)[C@H](C(C)C)NC(=O)[C@H](C(C)C)NC1=O [Peptide 9, KLKLKT1N*VVYWT1] | had a similar bioactivity as the inverso cyclic III peptide 8 | –
25 µM | 39 µM | KLKQKT1N*VVAWT3 [21] (cyclo(KLKQK[T1][Nle]VVAW[T3])) [Peptide 21] | – | –
41 µM | > 50 µM | KLKLKT1WAAVN*T1 (cyclo(KLKLK[T1″]WAAV[Nle][T1″])) [Peptide 14] | – | –
12 µM | 10 µM | KLKLKT1WAVVN*T1 (cyclo(KLKLK[T1]WAVV[Nle][T1])) [Peptide 11] | – | –

Compound | IC50 [1] | IC50 [2] | bioactivity relative to parent/comparator peptide (H929 cells) | other results
CCCC[C@@H]1NC(=O)CN(S(C)(=O)=O)CCNC(=O)[C@H](CCCCN)NC(=O)[C@H](CC(C)C)NC(=O)[C@H](CCCCN)NC(=O)[C@H](CC(C)C)NC(=O)[C@H](CCCCN)NC(=O)COC[C@H]2CCCN2C(=O)[C@H](Cc2c[nH]c3ccccc23)NC(=O)[C@H](C)NC(=O)[C@H](CC(C)C)NC(=O)[C@H](C(C)C)NC1=O [Peptide 24, KLKLKT1N*VLAWT3] (Ms-[N(2-Aminoethyl)Gly][Nle]VLAW[dProlinol(O-CH2CO)]KLKLK; lactam 1-C) | 10 µM | – | – | –
CCCC[C@@H]1NC(=O)CN(S(C)(=O)=O)CCNC(=O)[C@H](CCCCN)NC(=O)[C@H](CC(C)C)NC(=O)[C@H](CCCCN)NC(=O)[C@H](CC(C)C)NC(=O)[C@H](CCCCN)NC(=O)COC[C@H]2CCCN2C(=O)[C@H](Cc2c[nH]c3ccccc23)NC(=O)[C@H](C)NC(=O)[C@H]([C@@H](C)CC)NC(=O)[C@H](C(C)C)NC1=O [Peptide 25, KLKLKT1N*VIAWT3] (Ms-[N(2-Aminoethyl)Gly][Nle]VIAW[dProlinol(O-CH2CO)]KLKLK; lactam 1-C) | 10 µM | – | – | –
CCCC[C@@H]1NC(=O)CN(S(C)(=O)=O)CCNC(=O)[C@H](CCCCN)NC(=O)[C@H](CC(C)C)NC(=O)[C@H](CCCCN)NC(=O)[C@H](CC(C)C)NC(=O)[C@H](CCCCN)NC(=O)COC[C@H]2CCCN2C(=O)[C@H](Cc2c[nH]c3ccccc23)NC(=O)[C@H](C)NC(=O)[C@H](C(C)C)NC(=O)[C@H](C(C)C)NC1=O [Peptide 16, KLKLKT1N*VVAWT3] (Ms-[N(2-Aminoethyl)Gly][Nle]VVAW[dProlinol(O-CH2CO)]KLKLK; lactam 1-C) | – | 13 µM | – | IC50 (text b390, H929 multiple myeloma cells, read-out: bioactivity): 1 µM

Source: patent US20150071918A1, “PEPTIDES FOR THE TREATMENT OF CANCER” (H. LEE MOFFITT CANCER CENTER AND RESEARCH INSTITUTE, INC., priority 2012, published 2015)
